From PubChem BioAssay (NCI)
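Briefly, cells in 96-well plates were exposed to five compound concentrations for 48 h, and endpoints were estimated by linear interpolation. TGI marks complete inhibition of growth.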

Tests used:
Assay in all cases: NCI anticancer screen, dose series, 48 h
SK-MEL-28 melanoma = test system: SK-MEL-28 melanoma
BT-549 breast = test system: BT-549 breast
SF-268 CNS = test system: SF-268 CNS
ACHN renal = test system: ACHN renal
MDA-N = test system: MDA-N
LOX IMVI melanoma = test system: LOX IMVI melanoma
M14 melanoma = test system: M14 melanoma
KM12 colon = test system: KM12 colon
NCI-H23 lung = test system: NCI-H23 lung
SW-620 colon = test system: SW-620 colon
HCC-2998 colon = test system: HCC-2998 colon
OVCAR-3 ovarian = test system: OVCAR-3 ovarian
UACC-62 melanoma = test system: UACC-62 melanoma
OVCAR-8 ovarian = test system: OVCAR-8 ovarian
SF-539 CNS = test system: SF-539 CNS
NCI-H522 lung = test system: NCI-H522 lung
DU-145 prostate = test system: DU-145 prostate
SK-OV-3 ovarian = test system: SK-OV-3 ovarian
HCT-116 colon = test system: HCT-116 colon
SN12C renal = test system: SN12C renal

SMILES | TGI (SK-MEL-28 melanoma) [µM] | TGI (BT-549 breast) [µM] | TGI (SF-268 CNS) [µM] | TGI (ACHN renal) [µM] | TGI (MDA-N) [µM] | TGI (LOX IMVI melanoma) [µM] | TGI (M14 melanoma) [µM] | TGI (KM12 colon) [µM] | TGI (NCI-H23 lung) [µM] | TGI (SW-620 colon) [µM] | TGI (HCC-2998 colon) [µM] | TGI (OVCAR-3 ovarian) [µM] | TGI (UACC-62 melanoma) [µM] | TGI (OVCAR-8 ovarian) [µM] | TGI (SF-539 CNS) [µM] | TGI (NCI-H522 lung) [µM] | TGI (DU-145 prostate) [µM] | TGI (SK-OV-3 ovarian) [µM] | TGI (HCT-116 colon) [µM] | TGI (SN12C renal) [µM]
O=Cc1ccc2c(c1)CC1(C2)Cc2ccc3c(c2C1)CCC3 (centres undefined) | 29.5 | 18.6 | 41.9 | > 100 | 4.85 | 15.9 | 21.3 | 33.1 | 33.6 | 15.2 | > 60.3 | 19.5 | 18.8 | 29.8 | 26.1 | > 83.6 | > 69 | 45.1 | 19.1 | 23.7
COC(=O)C(C)(NC(=O)C(CC(=O)OC(C)(C)C)NC(=O)OC(C)(C)C)c1ccccc1 (centres undefined) | > 100 | > 100 | > 100 | > 100 | > 100 | > 100 | > 100 | > 100 | > 100 | > 100 | > 100 | > 100 | > 100 | > 100 | > 100 | > 100 | > 100 | > 100 | > 100 | > 100
CC(C)(C)c1cc(C(P(=O)(c2ccccc2)c2ccccc2)P(=O)(c2ccccc2)c2ccccc2)cc(C(C)(C)C)c1O | 4.71 | > 8.23 | > 9.47 | > 10 | 3.93 | 4.04 | 3.84 | 3.37 | 7.3 | > 9.23 | 4.45 | 5.41 | 3.32 | 8.95 | 3.88 | 5.26 | > 10 | > 10 | 3.23 | > 9.06
CN(c1ccc(Cl)cc1)S(=O)(=O)c1ccc([N+](=O)[O-])cc1 | > 100 | > 100 | > 100 | > 100 | > 100 | > 100 | > 100 | > 100 | > 100 | > 100 | > 100 | > 100 | > 100 | > 100 | > 100 | > 100 | > 100 | > 100 | > 100 | > 100
NC(N)=NCCN=C(N)N | > 100 | > 100 | > 100 | > 100 | > 100 | > 100 | > 100 | > 100 | > 100 | > 100 | > 100 | > 100 | > 100 | > 100 | > 100 | > 100 | > 100 | > 100 | > 100 | > 100
O=C(O)c1n[nH]nc1Cl | > 100 | > 100 | > 100 | > 100 | > 100 | > 100 | > 100 | > 100 | > 100 | > 100 | > 100 | > 100 | > 100 | > 100 | > 100 | > 100 | > 100 | > 100 | > 100 | > 100
CCc1nc(N)nc(N)c1-c1ccc2nn(-c3ccccc3)[n+]([O-])c2c1 | 25.1 | 26.3 | 31.5 | 17.3 | 18.8 | 17.7 | 18.8 | 41 | 18.2 | 18.3 | 20.5 | 28.3 | 17.5 | 26.8 | 18.2 | 11.6 | 20.1 | > 69.3 | 15.5 | 24.4
O=[N+]([O-])c1ccc(Cl)c(C=NC23CC4CC(CC(C4)C2)C3)c1 | > 10 | > 10 | > 10 | > 10 | > 10 | > 10 | > 10 | > 10 | > 10 | > 10 | > 10 | > 10 | > 10 | > 7.79 | 9.9 | > 10 | > 10 | > 10 | > 10 | > 10
CC(=O)n1nc(-c2ccccc2)n(/N=C/c2ccc([N+](=O)[O-])cc2)c1=O | > 100 | > 100 | > 100 | > 100 | > 100 | > 100 | > 100 | > 100 | > 100 | > 100 | > 100 | > 100 | > 100 | > 100 | > 100 | > 100 | > 100 | > 100 | > 100 | > 100
CCC(=O)NC(Nc1cccc(F)c1C)(C(F)(F)F)C(F)(F)F | > 100 | > 100 | > 100 | > 100 | > 100 | > 100 | > 100 | > 100 | > 100 | > 100 | > 100 | > 100 | > 100 | > 100 | > 100 | > 100 | > 100 | > 100 | > 100 | –
CN(c1ccc(Cl)cc1)S(=O)(=O)c1cccc([N+](=O)[O-])c1 | > 100 | > 100 | > 100 | > 100 | > 100 | > 100 | > 100 | > 100 | > 100 | > 100 | > 100 | > 100 | > 100 | > 100 | > 100 | > 100 | > 100 | > 100 | > 100 | > 100
